Target: T1, recombinant human Estrogen Receptor alpha ligand binding domain, residues 307-554 (ER alpha-LBD (GST)) (Homo sapiens, UniProt P03372)
T1 construct: made in house
T1 sequence (P03372 307-554): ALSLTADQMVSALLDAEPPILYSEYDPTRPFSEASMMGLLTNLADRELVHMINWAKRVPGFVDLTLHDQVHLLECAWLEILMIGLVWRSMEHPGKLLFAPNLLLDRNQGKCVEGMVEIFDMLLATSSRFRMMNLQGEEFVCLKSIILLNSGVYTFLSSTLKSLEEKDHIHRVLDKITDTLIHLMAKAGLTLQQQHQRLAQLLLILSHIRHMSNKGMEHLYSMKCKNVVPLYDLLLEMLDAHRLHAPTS
Assay: ERα binding assay (LanthaScreen TR-FRET competition)
Settings: TR-FRET competition with Fluormone ES2 tracer, 4 hours at room temperature; single experiment or average of two or more

| SMILES | IC50 [nM] |
| --- | --- |
| Cc1ncsc1-c1ccc(CNC(=O)[C@@H]2C[C@@H](O)CN2C(=O)[C@@H](NC(=O)COCCCCCCCCOc2ccc([C@@H]3c4[nH]c5ccccc5c4C[C@@H](C)N3CC(F)F)nc2)C(C)(C)C)cc1 [Example 13, (2S,4R)-1-((S)-2-(2-((8-((6-((1S,3R)-2-(2,2-Difluoroethyl)-3-methyl-2,3,4,9-tetrahydro-1H-pyrido[3,4-b]indol-1-yl)pyridin-3-yl)oxy)octyl)oxy)acetamido)-3,3-dimethylbutanoyl)-4-hydroxy-N-(4-(4-methylthiazol-5-yl)benzyl)pyrrolidine-2-carboxamide] | 5 |
| Cc1ncsc1-c1ccc(CNC(=O)[C@@H]2C[C@@H](O)CN2C(=O)[C@@H](NC(=O)COCc2cccc(COc3cc(F)c([C@@H]4c5[nH]c6ccccc6c5C[C@@H](C)N4CC(C)(C)F)c(F)c3)n2)C(C)(C)C)cc1 [Example 132, (2S,4R)-1-((S)-2-(2-((6-((3,5-Difluoro-4-((1R,3R)-2-(2-fluoro-2-methylpropyl)-3-methyl-2,3,4,9-tetrahydro-1H-pyrido[3,4-b]indol-1-yl)phenoxy)methyl)pyridin-2-yl)methoxy)acetamido)-3,3-dimethylbutanoyl)-4-hydroxy-N-(4-(4-methylthiazol-5-yl)benzyl)pyrrolidine-2-carboxamide] | 0.5 |
| Cc1ncsc1-c1ccc(CNC(=O)[C@@H]2C[C@@H](O)CN2C(=O)[C@@H](NC(=O)COCCc2ccc(COc3cc(F)c([C@@H]4c5[nH]c6ccccc6c5C[C@@H](C)N4CC(C)(C)F)c(F)c3)cc2)C(C)(C)C)cc1 [Example 53, (2S,4R)-1-((S)-2-(2-(4-((3,5-difluoro-4-((1R,3R)-2-(2-fluoro-2-methylpropyl)-3-methyl-2,3,4,9-tetrahydro-1H-pyrido[3,4-b]indol-1-yl)phenoxy)methyl)phenethoxy)acetamido)-3,3-dimethylbutanoyl)-4-hydroxy-N-(4-(4-methylthiazol-5-yl)benzyl)pyrrolidine-2-carboxamide] | 1 |
| Cc1ncsc1-c1ccc(CNC(=O)[C@@H]2C[C@@H](O)CN2C(=O)[C@@H](NC(=O)CCCCCOCCCCOc2cc(F)c([C@@H]3c4[nH]c5ccccc5c4C[C@@H](C)N3CC(C)(C)F)c(F)c2)C(C)(C)C)cc1 [Example 109, (2S,4R)-1-((S)-2-(6-(4-(3,5-difluoro-4-((1R,3R)-2-(2-fluoro-2-methylpropyl)-3-methyl-2,3,49-tetrahydro-1H-pyrido[3,4-b]indol-1-yl)phenoxy)butoxy)hexanamido)-3,3-dimethylbutanoyl)-4-hydroxy-N-(4-(4-methylthiazol-5-yl)benzyl)pyrrolidine-2-carboxamide] | 0.6 |
| Cc1ncsc1-c1ccc(CNC(=O)[C@@H]2C[C@@H](O)CN2C(=O)[C@@H](NC(=O)COCCOCCCCOc2cc(F)c([C@@H]3c4[nH]c5ccccc5c4C[C@@H](C)N3CC(C)(C)F)c(F)c2)C(C)(C)C)cc1 [Example 128, (2S,4R)-1-((S)-2-(2-(2-(4-(3,5-Difluoro-4-((1R,3R)-2-(2-fluoro-2-methylpropyl)-3-methyl-2,3,4,9-tetrahydro-1H-pyrido[3,4-b]indol-1-yl)phenoxy)butoxy)ethoxy)acetamido)-3,3-dimethylbutanoyl)-4-hydroxy-N-(4-(4-methylthiazol-5-yl)benzyl)pyrrolidine-2-carboxamide] | 0.6 |
| Cc1ncsc1-c1ccc(CNC(=O)[C@@H]2C[C@@H](O)CN2C(=O)[C@@H](NC(=O)CCCOCCCCCCOc2cc(F)c([C@@H]3c4[nH]c5ccccc5c4C[C@@H](C)N3CC(C)(C)F)c(F)c2)C(C)(C)C)cc1 [Example 112, (2S,4R)-1-((S)-2-(4-((6-(3,5-difluoro-4-((1R,3R)-2-(2-fluoro-2-methylpropyl)-3-methyl-2,3,4,9-tetrahydro-1H-pyrido[3,4-b]indol-1-yl)phenoxy)hexyl)oxy)butanamido)-3,3-dimethylbutanoyl)-4-hydroxy-N-(4-(4-methylthiazol-5-yl)benzyl)pyrrolidine-2-carboxamide] | 0.5 |
| Cc1ncsc1-c1ccc(CNC(=O)[C@@H]2C[C@@H](O)CN2C(=O)[C@@H](NC(=O)CCCCCCCOCCOc2cc(F)c([C@@H]3c4[nH]c5ccccc5c4C[C@@H](C)N3CC(C)(C)F)c(F)c2)C(C)(C)C)cc1 [Example 111, (2S,4R)-1-((S)-2-(8-(2-(3,5-Difluoro-4-((1R,3R)-2-(2-fluoro-2-methylpropyl)-3-methyl-2,3,4,9-tetrahydro-1H-pyrido[3,4-b]indol-1-yl)phenoxy)ethoxy)octanamido)-3,3-dimethylbutanoyl)-4-hydroxy-N-(4-(4-methylthiazol-5-yl)benzyl)pyrrolidine-2-carboxamide] | 0.6 |
| Cc1ncsc1-c1ccc(CNC(=O)[C@@H]2C[C@@H](O)CN2C(=O)[C@@H](NC(=O)COCCCCC(=O)N(C)CCOc2cc(F)c([C@@H]3c4[nH]c5ccccc5c4C[C@@H](C)N3CC(C)(C)F)c(F)c2)C(C)(C)C)cc1 [Example 143, (2S,4R)-1-((S)-2-(2-((5-((2-(3,5-Difluoro-4-((1R,3R)-2-(2-fluoro-2-methylpropyl)-3-methyl-2,3,4,9-tetrahydro-1H-pyrido[3,4-b]indol-1-yl)phenoxy)ethyl)(methyl)amino)-5-oxopentyl)oxy)acetamido)-3,3-dimethylbutanoyl)-4-hydroxy-N-(4-(4-methylthiazol-5-yl)benzyl)pyrrolidine-2-carboxamide] | 1.1 |
| Cc1ncsc1-c1ccc(CNC(=O)[C@@H]2C[C@@H](O)CN2C(=O)[C@@H](NC(=O)COCCOCCOCCOCCOCCOCC(=O)Nc2ccc([C@@H]3c4[nH]c5ccccc5c4C[C@@H](C)N3CC(C)(C)F)cc2)C(C)(C)C)cc1 [Example 54, N^1-(4-((1R,3R)-2-(2-fluoro-2-methylpropyl)-3-methyl-2,3,4,9-tetrahydro-1H-pyrido[3,4-b]indol-1-yl)phenyl)-N^18—((S)-1-((2S,4R)-4-hydroxy-2-(4-(4-methylthiazol-5-yl)benzylcarbamoyl)pyrrolidin-1-yl)-3,3-dimethyl-1-oxobutan-2-yl)-2,5,8,11,14,17-hexaoxaoctadecane-1,18-dicarboxamide, Trifluoroacetic Acid] | 16 |
| Cc1ncsc1-c1ccc(CNC(=O)[C@@H]2C[C@@H](O)CN2C(=O)[C@@H](NC(=O)COCC(F)(F)COCCCOc2cc(F)c([C@@H]3c4[nH]c5ccccc5c4C[C@@H](C)N3CC(C)(C)F)c(F)c2)C(C)(C)C)cc1 [Example 125, (2S,4R)-1-((S)-2-(2-(3-(3-(3,5-Difluoro-4-((1R,3R)-2-(2-fluoro-2-methylpropyl)-3-methyl-2,3,4,9-tetrahydro-1H-pyrido[3,4-b]indol-1-yl)phenoxy)propoxy)-2,2-difluoropropoxy)acetamido)-3,3-dimethylbutanoyl)-4-hydroxy-N-(4-(4-methylthiazol-5-yl)benzyl)pyrrolidine-2-carboxamide] | 1 |
| Cc1ncsc1-c1ccc(CNC(=O)[C@@H]2C[C@@H](O)CN2C(=O)[C@@H](NC(=O)COc2cccc(COc3cc(F)c([C@@H]4c5[nH]c6ccccc6c5C[C@@H](C)N4CC(C)(C)F)c(F)c3)c2)C(C)(C)C)cc1 [Example 20, (2S,4R)-1-((S)-2-(2-(3-((3,5-difluoro-4-((1R,3R)-2-(2-fluoro-2-methylpropyl)-3-methyl-2,3,4,9-tetrahydro-1H-pyrido[3,4-b]indol-1-yl)phenoxy)methyl)phenoxy)acetamido)-3,3-dimethylbutanoyl)-4-hydroxy-N-(4-(4-methylthiazol-5-yl)benzyl)pyrrolidine-2-carboxamide] | 1 |
| Cc1ncsc1-c1ccc(CNC(=O)[C@@H]2C[C@@H](O)CN2C(=O)[C@@H](NC(=O)COCCCCCOc2cc(F)c([C@@H]3c4[nH]c5ccccc5c4C[C@@H](C)N3CC(C)(C)F)c(F)c2)C(C)(C)C)cc1 [Example 18, (2S,4R)-1-((S)-2-(2-((5-(3,5-Difluoro-4-((1R,3R)-2-(2-fluoro-2-methylpropyl)-3-methyl-2,3,4,9-tetrahydro-1H-pyrido[3,4-b]indol-1-yl)phenoxy)pentyl)oxy)acetamido)-3,3-dimethylbutanoyl)-4-hydroxy-N-(4-(4-methylthiazol-5-yl)benzyl)pyrrolidine-2-carboxamide] | 0.6 |
| Cc1ncsc1-c1ccc(CNC(=O)[C@@H]2C[C@@H](O)CN2C(=O)[C@@H](NC(=O)COCCOCCC(F)(F)CCOc2cc(F)c([C@@H]3c4[nH]c5ccccc5c4C[C@@H](C)N3CC(C)(C)F)c(F)c2)C(C)(C)C)cc1 [Example 127, (2S,4R)-1-((S)-2-(2-(2-((5-(3,5-Difluoro-4-((R,3R)-2-(2-fluoro-2-methylpropyl)-3-methyl-2,3,4,9-tetrahydro-1H-pyrido[3,4-b]indol-1-yl)phenoxy)-3,3-difluoropentyl)oxy)ethoxy)acetamido)-3,3-dimethylbutanoyl)-4-hydroxy-N-(4-(4-methylthiazol-5-yl)benzyl)pyrrolidine-2-carboxamide] | 0.5 |
| Cc1ncsc1-c1ccc(CNC(=O)[C@@H]2C[C@@H](O)CN2C(=O)[C@@H](NC(=O)C(F)(F)OCCCOCCCOc2cc(F)c([C@@H]3c4[nH]c5ccccc5c4C[C@@H](C)N3CC(C)(C)F)c(F)c2)C(C)(C)C)cc1 [Example 119, (2S,4R)-1-((S)-2-(2-(3-(3-(3,5-Difluoro-4-((1R,3R)-2-(2-fluoro-2-methylpropyl)-3-methyl-2,3,4,9-tetrahydro-1H-pyrido[3,4-b]indol-1-yl)phenoxy)propoxy)propoxy)-2,2-difluoroacetamido)-3,3-dimethylbutanoyl)-4-hydroxy-N-(4-(4-methylthiazol-5-yl)benzyl)pyrrolidine-2-carboxamide] | 0.8 |

— patent US10519152B2, “Compounds and their use in treating cancer” (AstraZeneca AB, priority 2017, dated 2019)
